In ChEMBL document CHEMBL1240440, “A bioactive labdane diterpenoid from Curcuma amada and its semisynthetic analogues as antitubercular agents” (2010) one finds MIC data, which are given here for six compounds.

≈ marks a conversion by molar mass, not a printed value.

The assay concerns Mycobacterium tuberculosis. The assay is described as follows: Antitubercular activity against Mycobacterium tuberculosis H37Rv ATCC 27294 after 24 hrs by BACTEC radiometric susceptibility assay. In kind it is functional. The following applies: H37Rv ATCC 27294, 24 h.

On to `C=C1CC[C@H]2C(C)(C)CCC[C@]2(C)[C@H]1C/C=C(\CCOC(C)=O)COC(C)=O`, for which the MIC was > 1000 µg/mL.
In the case of `C=C1CC[C@H]2C(C)(C)CCC[C@]2(C)[C@H]1C/C=C(/C=O)CC=O` it was 500 µg/mL (≈ 1650 µM); in that of `C=C1CC[C@H]2C(C)(C)CCC[C@]2(C)[C@H]1C/C=C(/CO)CCO`, 250 µg/mL (≈ 816 µM).
For `CN[C@@H]1[C@H](O[C@H]2[C@H](O[C@H]3[C@H](O)[C@@H](O)[C@H](N=C(N)N)[C@@H](O)[C@@H]3N=C(N)N)O[C@@H](C)[C@]2(O)C=O)O[C@@H](CO)[C@H](O)[C@H]1O` [STREPTOMYCIN], the minimum inhibitory concentration (MIC) came to 2 µg/mL (≈ 3.44 µM).
As for `CO[C@H]1/C=C/O[C@@]2(C)Oc3c(C)c(O)c4c(O)c(c(/C=N/N5CCN(C)CC5)c(O)c4c3C2=O)NC(=O)/C(C)=C\C=C\[C@H](C)[C@H](O)[C@@H](C)[C@@H](O)[C@@H](C)[C@H](OC(C)=O)[C@@H]1C` [RIFAMPIN], the MIC was determined as 2 µg/mL (≈ 2.43 µM).
In the case of `C=C1CC[C@H]2C(C)(C)CCC[C@]2(C)[C@H]1C/C=C(/C=N/O)C/C=N/O` it was 500 µg/mL (≈ 1500 µM).

In general, MIC refers to the smallest concentration in the dilution series that meets the test's criterion for growth inhibition.
